From patent US20260116867A1, “PROTEOLYSIS TARGETING CHIMERAS FOR HUMAN PREGNANE X RECEPTOR AND FOR DEGRADATION OF GSPT1” (ST. JUDE CHILDREN'S RESEARCH HOSPITAL, priority 2022, published 2026)

Legend:
[1] = biological target: T1, PXR (Homo sapiens, UniProt O75469); test: hPXR binding assay; conditions: for inhibition at 10 µM: read-out: Binding (% inhibition at 10 μM)
T1 sequence (O75469 1-434): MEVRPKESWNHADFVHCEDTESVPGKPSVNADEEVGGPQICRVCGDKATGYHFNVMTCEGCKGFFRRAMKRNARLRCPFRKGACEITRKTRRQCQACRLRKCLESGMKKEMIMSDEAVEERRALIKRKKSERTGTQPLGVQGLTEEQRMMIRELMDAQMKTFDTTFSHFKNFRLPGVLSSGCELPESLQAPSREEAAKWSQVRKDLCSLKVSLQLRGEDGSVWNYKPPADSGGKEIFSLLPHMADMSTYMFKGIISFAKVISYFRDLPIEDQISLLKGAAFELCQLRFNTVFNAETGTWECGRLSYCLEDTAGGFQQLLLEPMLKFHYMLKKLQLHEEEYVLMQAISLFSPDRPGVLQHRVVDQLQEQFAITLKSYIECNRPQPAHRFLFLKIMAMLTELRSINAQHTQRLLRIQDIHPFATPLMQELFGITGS

[2] = biological target: T1, PXR; test: cell-based hPXR inverse agonistic assay; conditions: for inhibition at 10 µM: read-out: Inverse agonist (% inhibition at 10 μM); for IC50: read-out: Inverse agonist (IC50/μM)
[3] = biological target: T1, PXR; test: cell-based hPXR antagonistic assay; conditions: for inhibition at 10 µM: read-out: Antagonist (% inhibition at 10 μM); for IC50: read-out: Antagonist (IC50/μM)

| SMILES | IC50 [1] [µM] | inhibition at 10 µM [1] [%] | inhibition at 10 µM [2] [%] | IC50 [2] [µM] | inhibition at 10 µM [3] [%] | IC50 [3] [µM] |
| --- | --- | --- | --- | --- | --- | --- |
| COc1ccc(OC)c(-n2nnc(C(=O)Oc3cccc4c3C(=O)N(C3CCC(=O)NC3=O)C4=O)c2C)c1 (centres unmarked) [Compound M2, 2-(2,6-dioxopiperidin-3-yl)-1,3-dioxoisoindolin-4-yl 1-(2,5-dimethoxyphenyl)-5-methyl-1H-1,2,3-triazole-4-carboxylate] | 2.69 ± 1.33 | 46 | – | – | – | – |
| COc1ccc(OC)c(-n2nnc(C(=O)Nc3cc(Nc4cccc5c4C(=O)N(C4CCC(=O)NC4=O)C5=O)cc(C(C)(C)C)c3)c2C)c1 (centres unmarked) [Compound M5, N-(3-(tert-butyl)-5-((2-(2,6-dioxopiperidin-3-yl)-1,3-dioxoisoindolin-4-yl)amino)phenyl)-1-(2,5-dimethoxyphenyl)-5-methyl-1H-1,2,3-triazole-4-carboxamide] | 0.083 ± 0.0041 | 69 | 141 | 0.0078 ± 0.002 | 107 | 0.052 ± 0.0066 |
| COc1ccc(OC)c(-n2nnc(C(=O)Nc3cc(C(C)(C)C)ccc3OCCCCNc3cccc4c3CN(C3CCC(=O)NC3=O)C4=O)c2C)c1 (centres unmarked) [Compound M13, N-(5-(tert-butyl)-2-(4-((2-(2,6-dioxopiperidin-3-yl)-1-oxoisoindolin-4-yl)amino)butoxy)phenyl)-1-(2,5-dimethoxyphenyl)-5-methyl-1H-1,2,3-triazole-4-carboxamide] | – | – | – | – | 40 | 41 ± 5.3 |
| COc1ccc(OC)c(-n2nnc(C(=O)Nc3cc(OCCCCNc4cccc5c4CN(C4CCC(=O)NC4=O)C5=O)cc(C(C)(C)C)c3)c2C)c1 (centres unmarked) [Compound M14, N-(3-(tert-butyl)-5-(4-((2-(2,6-dioxopiperidin-3-yl)-1-oxoisoindolin-4-yl)amino)butoxy)phenyl)-1-(2,5-dimethoxyphenyl)-5-methyl-1H-1,2,3-triazole-4-carboxamide] | 0.13 ± 0.051 | 22 | 94 | 0.43 ± 0.14 | 82 | 1.86 ± 0.53 |
| COc1ccc(OC)c(-n2nnc(C(=O)Nc3cc(NC(=O)CCCNC(=O)COc4cccc5c4C(=O)N(C4CCC(=O)NC4=O)C5=O)cc(C(C)(C)C)c3)c2C)c1 (centres unmarked) [Compound M15, N-(3-(tert-butyl)-5-(4-(2-((2-(2,6-dioxopiperidin-3-yl)-1,3-dioxoisoindolin-4-yl)oxy)acetamido)butanamido)phenyl)-1-(2,5-dimethoxyphenyl)-5-methyl-1H-1,2,3-triazole-4-carboxamide] | 2.19 ± 1.35 | 30 | – | – | – | – |
| COc1ccc(OC)c(-n2nnc(C(=O)Nc3cc(OCCCCCCCCOc4cccc5c4C(=O)N(C4CCC(=O)NC4=O)C5=O)cc(C(C)(C)C)c3)c2C)c1 (centres unmarked) [Compound M16, N-(3-(tert-butyl)-5-((8-((2-(2,6-dioxopiperidin-3-yl)-1,3-dioxoisoindolin-4-yl)oxy)octyl)oxy)phenyl)-1-(2,5-dimethoxyphenyl)-5-methyl-1H-1,2,3-triazole-4-carboxamide] | – | – | – | – | 57 | 2.02 ± 0.47 |
| COc1ccc(OC)c(-n2nnc(C(=O)Nc3cc(NC(=O)COCCOCCOCCOCCNc4cccc5c4C(=O)N(C4CCC(=O)NC4=O)C5=O)cc(C(C)(C)C)c3)c2C)c1 (centres unmarked) [Compound M17, N-(3-(tert-butyl)-5-(14-((2-(2,6-dioxopiperidin-3-yl)-1,3-dioxoisoindolin-4-yl)amino)-3,6,9,12-tetraoxatetradecanamido)phenyl)-1-(2,5-dimethoxyphenyl)-5-methyl-1H-1,2,3-triazole-4-carboxamide] | – | – | 84 | 1.98 ± 0.25 | 70 | – |
| COc1ccc(OC)c(-n2nnc(C(=O)Nc3cc(C(C)(C)C)ccc3OCCCCCCCCOc3cccc4c3C(=O)N(C3CCC(=O)NC3=O)C4=O)c2C)c1 (centres unmarked) [Compound M19, N-(5-(tert-butyl)-2-((8-((2-(2,6-dioxopiperidin-3-yl)-1,3-dioxoisoindolin-4-yl)oxy)octyl)oxy)phenyl)-1-(2,5-dimethoxyphenyl)-5-methyl-1H-1,2,3-triazole-4-carboxamide] | – | – | – | – | 30 | 2.52 ± 1.38 |
| COc1ccc(OC)c(-n2nnc(C(=O)Nc3cc(C(C)(C)C)ccc3OCCOCCOCCOCCOCCOCCOc3cccc4c3C(=O)N(C3CCC(=O)NC3=O)C4=O)c2C)c1 (centres unmarked) [Compound M20, N-(5-(tert-butyl)-2-((17-((2-(2,6-dioxopiperidin-3-yl)-1,3-dioxoisoindolin-4-yl)oxy)-3,6,9,12,15-pentaoxaheptadecyl)oxy)phenyl)-1-(2,5-dimethoxyphenyl)-5-methyl-1H-1,2,3-triazole-4-carboxamide] | 4.9 ± 0.8 | 64 | – | – | 58 | 6.33 ± 0.74 |
| COc1ccc(OC)c(-n2nnc(C(=O)Nc3cc(OCCCCN4C(=O)CCC(N5Cc6c(N)cccc6C5=O)C4=O)cc(C(C)(C)C)c3)c2C)c1 (centres unmarked) [Compound N4, N-(3-(4-(3-(4-amino-1-oxoisoindolin-2-yl)-2,6-dioxopiperidin-1-yl)butoxy)-5-(tert-butyl)phenyl)-1-(2,5-dimethoxyphenyl)-5-methyl-1H-1,2,3-triazole-4-carboxamide] | 0.087 ± 0.022 | 37 | 97 | 0.044 ± 0.008 | 103 | 0.17 ± 0.0045 |

Now from value to compound:

| IC50 [1] [µM] | inhibition at 10 µM [1] [%] | inhibition at 10 µM [2] [%] | IC50 [2] [µM] | inhibition at 10 µM [3] [%] | IC50 [3] [µM] | SMILES |
| --- | --- | --- | --- | --- | --- | --- |
| 7.23 ± 4.88 | 27 | – | – | 32 | 5 ± 1.16 | COc1ccc(OC)c(-n2nnc(C(=O)Nc3cc(C(C)(C)C)ccc3OCCOCCOCCOCCN3C(=O)CCC(N4Cc5c(N)cccc5C4=O)C3=O)c2C)c1 (centres unmarked) [Compound N2, N-(2-(2-(2-(2-(2-(3-(4-amino-1-oxoisoindolin-2-yl)-2,6-dioxopiperidin-1-yl)ethoxy)ethoxy)ethoxy)ethoxy)-5-(tert-butyl)phenyl)-1-(2,5-dimethoxyphenyl)-5-methyl-1H-1,2,3-triazole-4-carboxamide] |
| – | – | – | – | 11 | 6.51 ± 0.71 | COc1ccc(OC)c(-n2nnc(C(=O)Nc3cc(OCCCCCCCCN4C(=O)CCC(N5Cc6c(N)cccc6C5=O)C4=O)cc(C(C)(C)C)c3)c2C)c1 (centres unmarked) [Compound N6, N-(3-((8-(3-(4-amino-1-oxoisoindolin-2-yl)-2,6-dioxopiperidin-1-yl)octyl)oxy)-5-(tert-butyl)phenyl)-1-(2,5-dimethoxyphenyl)-5-methyl-1H-1,2,3-triazole-4-carboxamide] |
| 0.43 ± 0.027 | 48 | 36 | 1.12 ± 0.3 | 83 | 0.52 ± 0.095 | COc1ccc(OC)c(-n2nnc(C(=O)Nc3cc(OCCOCCOCCOCCOCCOCCN4C(=O)CCC(N5C(=O)c6cccc(N)c6C5=O)C4=O)cc(C(C)(C)C)c3)c2C)c1 (centres unmarked) [Compound N7, N-(3-((17-(3-(4-amino-1,3-dioxoisoindolin-2-yl)-2,6-dioxopiperidin-1-yl)-3,6,9,12,15-pentaoxaheptadecyl)oxy)-5-(tert-butyl)phenyl)-1-(2,5-dimethoxyphenyl)-5-methyl-1H-1,2,3-triazole-4-carboxamide] |
